According to a melting point compilation (Tetko et al.):

Row | Compound | melting point [°C]
1 | O=S(=O)(Cl)C1=Cc2ccccc2CC1 | 59 to 61
2 | CC(=O)NC(Cc1c[nH]c2ccc(Br)cc12)C(=O)O (configuration not stated) | 206 to 208
3 | N#Cc1ccc(S(=O)(=O)Cl)c([N+](=O)[O-])c1 | 119 to 121
4 | O=C(O)c1cc(F)cnc1Cl | 143 to 144
5 | Cc1cnc(NC(=O)c2ccc(Br)o2)s1 | 190 to 192
6 | CC(NS(=O)(=O)Cc1ccccc1)C(=O)O (configuration not stated) | 119 to 121
7 | CCn1nc(C)c(C(C)=O)c1C | 30 to 32
8 | CCCC1(C)NC(=O)NC1=O (configuration not stated) | 123 to 125
9 | O=C(O)c1ccccc1NCc1ccccc1Cl | 183 to 185
10 | O=S(=O)(Cc1ccccc1)N1CCNCC1 | 129 to 131
11 | NC(=O)C1CNc2ccccc21 (configuration not stated) | 150 to 152
12 | O=Cc1csc(-c2cccs2)n1 | 80 to 82
13 | Sc1ccc(Cl)nn1 | 148 to 150
14 | O=C(O)C1CCN(S(=O)(=O)c2ccc3c(c2)CCCC3)CC1 | 181 to 183
15 | Sc1nnc2c(Cl)cc(Cl)cn12 | 257 to 259
16 | NC(=O)c1cc(N2CCCCC2)ccc1N | 168 to 170
17 | O=C(O)c1csc(-c2ccsc2)n1 | 165 to 167
18 | O=C(O)C1CSc2ccccc2O1 (configuration not stated) | 126 to 128
19 | Cc1c(NC(C)C(C)C)cccc1C(=O)O (configuration not stated) | 90 to 92
20 | O=C(O)c1ccc(OC2CCC2)cc1Cl | 127 to 129
21 | CCOC(=O)c1cnc2ccccc2c1-n1cncn1 | 84 to 86
22 | N#Cc1ccccc1OCC(=O)O | 182 to 184
23 | COc1ccc(Oc2ccc(C=O)cc2)cc1 | 65 to 67
24 | CCC(N)=S | 40 to 42
25 | O=C(CCl)NCCc1cccs1 | < 17

Row | Compound | melting point [°C]
26 | CCCCn1c(N)cc(=O)[nH]c1=O | 238 to 240
27 | CC1CN(C(=O)CCl)CC(C)O1 (configuration not stated) | 61 to 63
28 | CCn1c(C)cc(C(=O)O)c1C | < 17
29 | COc1cc(Cl)ccc1C(=O)NN | 178 to 180
30 | O=C(O)C1CCCN(S(=O)(=O)c2ccccc2)C1 (configuration not stated) | 121 to 123
31 | CC1=NN(c2ccc(Cl)nn2)C(=O)C1 | 229 to 231
32 | CS(=O)(=O)N1CCCc2cc(C(=O)O)ccc21 | 218 to 220
33 | O=C(O)CNC(=O)c1ccsc1 | 176 to 178
34 | NC(=S)C1CCCO1 (configuration not stated) | 80 to 82
35 | Cc1cccn2c(C=O)cnc12 | 83 to 85
36 | Nc1ccccc1N1CCC(O)CC1 | 117 to 119
37 | O=C(O)C1CNc2ccccc21 (configuration not stated) | 178 to 180
38 | Cc1c(Cl)cccc1OCC(=O)O | 143 to 145
39 | Nc1ccccc1CC(F)(F)F | 44 to 46
40 | O=C(O)C1CC1(Cl)Cl (configuration not stated) | 74 to 76
41 | COC(=O)c1cc(Cl)c2cc(Cl)ccc2n1 | 157 to 159
42 | NC(CSCCc1ccccc1)C(=O)O (configuration not stated) | 210 to 212
43 | Nc1noc(-c2ccccc2)n1 | 164 to 166
44 | O=C(NCCO)c1cccnc1 | 74 to 76
45 | N#CCC(=O)c1ccc(Cl)cc1Cl | 62 to 64
46 | O=C(c1cccc(Cl)c1)N1CCNCC1 | 96 to 98
47 | O=C(CCl)NCc1ccc(COc2ccccc2)cc1 | 123 to 125
48 | Oc1ccc(-c2nc3ccccc3s2)cc1Cl | 186 to 188
49 | O=C(O)c1cnoc1C1CC1 | 159 to 161
50 | COc1ccc(C=C[N+](=O)[O-])cc1Cl | 95 to 97

Row | Compound | melting point [°C]
51 | COc1cc(F)c(F)cc1[N+](=O)[O-] | 54 to 56
52 | CC(=O)c1cc([N+](=O)[O-])ccc1F | 48 to 50
53 | O=C(O)CNC1=NCCCCC1 | 163 to 165
54 | Cc1cc(C=O)ccc1[N+](=O)[O-] | 65 to 67
55 | O=C(CCl)c1ccc2c(c1)CCC2 | 47 to 58
56 | O=C(O)C1CC=CCC1C(=O)N1CCCC1 (configuration not stated) | 116 to 118
57 | COc1ccc(C(=O)CO)cc1Cl | 136 to 138
58 | CN(C)Cc1cccc(N)c1 | 40 to 42
59 | O=C(O)c1coc2ccccc12 | 150 to 152
60 | N#CC(O)c1ccc([N+](=O)[O-])cc1 (configuration not stated) | 109 to 111
61 | O=C(O)c1ccc(COc2ccccc2)cc1 | 214 to 216
62 | CC1CN(C(=O)c2ccccc2N)CC(C)O1 (configuration not stated) | 119 to 121
63 | O=S1(=O)CCNCN1 | 143 to 145
64 | CC(=O)c1ccc(Cl)c(S(=O)(=O)Cl)c1 | 111 to 113
65 | O=C(O)c1nnn(-c2ccc(F)cc2)c1C1CC1 | 173 to 175
66 | COCc1c(C(=O)O)sc2cccc(F)c12 | 130 to 139
67 | CCOC(=O)c1cnc(N2CCNCC2)s1 | 73 to 75
68 | N#Cc1cnn(-c2ccc(C(=O)O)cc2)c1N | 289 to 291
69 | O=C(O)Cc1csc(NC(=O)c2ccco2)n1 | 223 to 225
70 | O=C(O)c1ccc(S(=O)(=O)NC2CC2)cc1 | 243 to 245
71 | Sc1nnc(NCCc2ccccc2)s1 | 143 to 145
72 | CCCN(CC)C(=O)c1ccc(C(=O)O)cc1 | 121 to 123
73 | CSCCC(C(=O)O)N1C(=O)C2CCCCC2C1=O (configuration not stated) | 268 to 270
74 | CC(=O)c1ccc2[nH]c(=O)[nH]c2c1 | 264 to 266
75 | CC(N)(C#N)Cn1cc(Br)cn1 (configuration not stated) | 60 to 62

Row | Compound | melting point [°C]
76 | Nc1ccc(Oc2ncccn2)cc1 | 132 to 134
77 | NNC(=O)NCc1cccc(C(F)(F)F)c1 | 86 to 88
78 | COCCn1c(S)nnc1-c1ccccc1 | 133 to 135
79 | Cc1nc(N(C)C)sc1C=O | 116 to 118
80 | CC(=O)N(c1ccc(C(F)(F)F)cc1)c1nc(CCl)cs1 | 115 to 117
81 | CCc1noc(-c2ccc(C)c(N)c2)n1 | 77 to 79
82 | N#Cc1ccc(SCCC(=O)O)cc1 | 86 to 88
83 | NC(=S)c1ccoc1 | 103 to 105
84 | CC(C)C1OC(N)=NC1=O (configuration not stated) | 219 to 221
85 | Cc1cc(N)ccc1C(=O)OC(C)(C)C | 69 to 71
86 | O=C1C(=O)N(Cc2ccccc2Cl)c2ccccc21 | 130 to 132
87 | O=C(O)c1c(O)cc(=O)n2c1CCC2 | 236 to 238
88 | O=c1[nH]c(CCl)nc2sc3c(c12)CCC3 | 230 to 238
89 | c1ccc2[nH]c(C3CCCNC3)nc2c1 (configuration not stated) | 189 to 191
90 | COc1cc(SC)ccc1C(=O)O | 111 to 114
91 | Cc1ccc(NC(=O)C2CSCN2)c(C)c1 (configuration not stated) | 89 to 91
92 | Cc1ccc2c(C)cc(Cl)nc2c1 | 49 to 51
93 | Cc1nn(C)c(C)c1S(=O)(=O)NC(C)C(=O)O (configuration not stated) | 197 to 199
94 | Nc1cc(S(=O)(=O)N2CCOCC2)ccc1N1CCCC1 | 179 to 181
95 | Cc1ccc(S(=O)(=O)OCC2CCCO2)cc1 (configuration not stated) | 43 to 45
96 | Nc1ccc(S(=O)(=O)N2CCCCC2)cn1 | 171 to 173
97 | CC(NC(=O)CCC(=O)O)C(=O)c1ccccc1 (configuration not stated) | 96 to 98
98 | O=C(NC(Cc1c[nH]cn1)C(=O)O)C1CCCCC1 (configuration not stated) | 127 to 129
99 | CC(=O)c1nc2ccccc2n1C | 67 to 69
100 | Cc1[nH]nc2ncc(C(=O)O)cc12 | 337 to 339

Row | Compound | melting point [°C]
101 | CC(C)(C)C1CCC(c2cc(N)[nH]n2)CC1 (configuration not stated) | 132 to 134
102 | Nc1nc(-c2ccccc2)cn1/N=C/c1ccccc1 | 202 to 204
103 | Cc1ccnn1-c1cccc(N)c1 | 93 to 95
104 | Cn1ccnc1C(=O)c1ccncc1 | 138 to 140
105 | CN(C)c1ccc(NC(=S)NN)cc1 | 167 to 169
106 | Brc1ccc(-n2cccn2)cc1 | 69 to 71
107 | CC(=O)NCCc1ccc(C(=O)O)cc1 | 175 to 177
108 | CC(C)(C)OC(=O)N1CCN2C(=O)C(=O)NCC2C1 (configuration not stated) | 222 to 224
109 | C=CC(=O)Nc1ccccc1 | 103 to 106
110 | O=C(Nc1ccccc1)C(Cl)c1ccccc1 (configuration not stated) | 150 to 152
111 | C/C(=N\O)c1scnc1C | 144 to 146
112 | OCc1cc(C23CC4CC(CC(C4)C2)C3)n[nH]1 | 159 to 161
113 | CCn1nnc2cc(C(=O)O)ccc21 | 228 to 230
114 | CC(=O)c1c(C)[nH]c(C(=O)CCl)c1C | 170 to 180
115 | Cc1cc(CNCc2cc(C)c(O)c(C)c2)cc(C)c1O | 249 to 251
116 | Cc1cc(C(=O)CCl)c(C)n1-c1ccccn1 | 76 to 78
117 | CC(O)c1ccc2c(c1)CC(=O)N2 (configuration not stated) | 171 to 173
118 | CCOC(=O)c1c(N)sc2c1CC(C)(C)NC2(C)C | 95 to 97
119 | CCc1nn(C)c(Cl)c1C(=O)O | 139 to 141
120 | NC(=O)Cc1ccc(OCC(=O)O)cc1 | 171 to 173
121 | COc1ccc(C2=CCNC2)cc1 | 94 to 96
122 | NC(=O)c1ccc(NCc2ccccc2)c(N)c1 | 169 to 171
123 | CC(C)N1C(=O)NC2(CCNC2)C1=O (configuration not stated) | 98 to 100
124 | NC(=O)c1cc(C(F)(F)F)ccc1N1CCCC1 | 207 to 209
125 | O=C(Nc1cccc(O)c1)c1ccsc1 | 165 to 167

Row | Compound | melting point [°C]
126 | COC(=O)c1cnc2c(c1)c(C)nn2C | 129 to 131
127 | CC(Sc1ccc(C#N)cc1)C(=O)O (configuration not stated) | 114 to 116
128 | CC(O)CCNc1cc2nc[nH]c(=O)c2cc1N (configuration not stated) | 209 to 211
129 | CCSc1cccc(C(=O)O)c1 | 95 to 97
130 | Clc1noc(-c2ccccc2)n1 | 31 to 33
131 | CCOC=C1C(=O)N(c2ccc(OCC)cc2)C(=O)c2ccccc21 | 175 to 177
132 | CC1C=CC(C(=O)O)C2C(=O)N(c3ccccc3)C(=O)C12 (configuration not stated) | 219 to 221
133 | O=C(O)c1ccc(Cl)c(S(=O)(=O)NC2CC2)c1 | 221 to 224
134 | COC(=O)c1cc(Cl)c(N)cc1OC | 124 to 126
135 | COc1cccc(Nc2ccccc2C(=O)O)c1 | 135 to 137
136 | CS(=O)(=O)CCCI | 59 to 61
137 | O=C(CCl)NCC#Cc1cccc(C(F)(F)F)c1 | 80 to 82
138 | COc1ccc(S(=O)(=O)Nc2nccs2)cc1 | 172 to 174
139 | CC(=O)NCc1ccc(C(=O)CCl)s1 | 143 to 145
140 | O=C(O)c1ccc(CN2CCc3ccccc32)cc1 | 182 to 184
141 | O=C(O)C1CC(=O)N(C2CC2)C1 (configuration not stated) | 93 to 95
142 | Nc1ccc2c(c1)C(=O)N(c1ccc(F)cc1)C2=O | 211 to 213
143 | OCCn1nccc1C1CCNCC1 | 126 to 128
144 | CNS(=O)(=O)c1ccc(N)cc1OC | 187 to 189
145 | CNc1ccc(Br)nc1 | 57 to 59
146 | Nc1ccccc1NC(=O)c1ccccc1I | 189 to 191
147 | c1ccc(CN2CCN(Cc3ccccc3)CC2)cc1 | 89 to 91
